Key:
[1] = test system: maximal electroshock (MES) seizures, mice; assay: maximal electroshock (MES) seizure test; format: in vivo; details: Mus musculus, ip; for responders at 100 mg/kg: 0.5 h, read-out: MES: number of mice protected/number of mice tested; for ED50: mice, pretreatment time 0.5 h
From the text: (§5) Both the aforementioned parameters (ED50 and TD50) enabled the calculation of protective indexes (PIs), which reflect the comparative the benefit–risk ratio of these experimental therapeutic agents.
(§6) Four mice per group were randomly assigned to each experimental group in the initial screening experiments (each mouse was used just once). Four groups, each with eight animals, received injections of different doses of the investigated substances in order to determine the ED50 or TD50 values. The PIs for the compounds investigated and reference ASMs were calculated by dividing the TD50 value, as determined in the chimney test by the respective ED50 value, as determined in the MES, scPTZ, or 6 Hz (32 mA or 44 mA) tests (PI = TD50/ED50). The PIs are a measure of the potential therapeutic window of the tested agent.

[2] = test system: 6 Hz (32 mA) seizures, mice; assay: 6 Hz (32 mA) psychomotor seizure test; format: in vivo; details: Mus musculus, ip, mice; for responders at 100 mg/kg: 100 mg/kg i.p., 0.5 h, read-out: 6 Hz (32 mA): number of mice protected/number of mice tested (converted); for ED50: pretreatment time 0.5 h;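 for all read-outs here: compounds given as one i.p. dose suspended in 1% aqueous Tween 80, with the 6 Hz (32 mA) model considered to reflect focal epilepsy in humans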
From the text: as §5, §6

scPTZ seizures, mice = assay: subcutaneous pentylenetetrazole (scPTZ) seizure test; format: in vivo, mouse; details: 100 mg/kg i.p., 0.5 h; for protection in the scPTZ seizures: four mice
Procedure: R-enantiomers (R)-31–(R)-33 due to broad and potent activity in both MES and 6 Hz (32 mA) were further evaluated in the scPTZ seizures. […] (i.e., KA-104, Figure 1) to acetyl moiety causes almost complete loss of protection against PTZ seizures.
All substances were suspended in Tween 80 (1% aqueous solution) and administered i.p. as a single injection at a volume of 10 mL/kg. On each day of experimentation, fresh solutions were prepared. The detailed in vivo procedures are described elsewhere: the maximal electroshock seizure test (MES),[83] the subcutaneous pentylenetetrazole seizure test (scPTZ),[84] the 6 Hz psychomotor seizure model (32 mA and 44 mA),[85] and the chimney test.[86] The reference ASMs were purchased from commercial suppliers: VPA (Sigma-Aldrich, St. Louis, MO, USA), LCS and LEV (UCB Pharma, Braine l’Alleud, Belgium).

[3] = test system: ivPTZ seizure threshold, mice; assay: timed ivPTZ seizure threshold test; format: in vivo, mouse; details: for effect on the threshold for the onset of any of the studied end points (ivPTZ): 30 min before test
Procedure: The effects of (R)-31, (R)-32, and (R)-33 on the thresholds for the first myoclonic twitch, generalized clonus with loss of righting reflex, and forelimb tonus in the timed ivPTZ seizure test in mice were evaluated in the following step of pharmacological characterization. […] It should be noted that the ivPTZ seizure test is an extremely sensitive method for determining the seizure threshold in rodents.[47] In this model, (R)-31 at a dose of 50 mg/kg had no effect on the threshold for the onset of any of the studied end points. […] Compounds (R)-32 and (R)-33 were tested at a dose of 50 mg/kg only. […] (R)-33 was ineffective in the ivPTZ seizure threshold test.
Figure 2 Effect of eutomers (R)-31, (R)-32, and (R)-33 on the thresholds for the onset of (A) myoclonic twitch, (B) generalized clonus, and (C) forelimb tonic extension in the timed ivPTZ test in mice. (R)-31, (R)-32, and (R)-33 were administered, i.p., 30 min before the seizure test. Control animals received vehicle. Data are presented as means + SD in mg/kg of PTZ necessary to induce each of the three end points (n = 7–14 animals). Statistical significance was evaluated using Student’s t-test: **p < 0.01, ****p < 0.0001 vs the vehicle-treated group (GraphPad Prism 8.4.3).
30 min prior to the testing, eutomers (R)-31, (R)-32, and (R)-33 were given i.p. after being suspended in a 1% Tween 80 solution. To reduce the number of animals utilized, neuromuscular strength measurements were made right before the seizure threshold test. The grip-strength test and the timed ivPTZ test experimental protocols were covered in full elsewhere.[87]

Na+ channel (site 2) = Na+ channel (site 2) radioligand binding; details: 10 μM, rat cerebral cortex
Procedure: The current body of literature consistently reports that both sodium (Navx) and Cav1.2 calcium ion channels can be involved in the pathogenesis of epilepsy[67]−[69] and neuropathic pain.[70]−[73] […] Therefore, we performed binding and functional studies toward sodium (site 2) and calcium Cav1.2 channels at concentrations of 10 μM for (R)-31−(R)-33.
(§1) Using previously described testing methodologies, binding/functional tests were conducted on a commercial basis at Eurofins Laboratories (Poitiers, France) and Eurofins Panlabs Discovery Services Taiwan, Ltd. (New Taipei City, Taiwan); see Table S9 for more information.
(§2) Table S9. Radioligand binding and functional assays. […]
(§3) Assays were performed commercially in Eurofins Laboratories (Poitiers, France) or Eurofins Panlabs Discovery Services
(§4) Taiwan, Ltd. (New Taipei City, Taiwan).

TRPV1 (VR1) (h) = target: T1, TRPV1 (VR1) (h) (Homo sapiens, UniProt Q8NER1); assay: TRPV1 (VR1) (h) (antagonist effect); format: cell-based; details: human recombinant CHO cells, antagonist effect; for Kb: read-out: KB (dissociation constant)
T1 construct: host or cells: CHO cells
Procedure: Further in vitro functional studies confirmed TRPV1 antagonist activity for (R)-31–(R)-33.
as §1, §2
TRPV1 (VR1) (h) (antagonist effect) […]
as §3, §4

[4] = metabolic stability in human liver microsomes (HLMs); format: in vitro ADME; details: for remaining at 2 h: human, human liver microsomes, 120 min incubation, TRIS buffer pH 7.4, 37 °C; for metabolic pathway: metabolites M1–M3 (one cell per metabolite)

T1 sequence (Q8NER1 whole entry): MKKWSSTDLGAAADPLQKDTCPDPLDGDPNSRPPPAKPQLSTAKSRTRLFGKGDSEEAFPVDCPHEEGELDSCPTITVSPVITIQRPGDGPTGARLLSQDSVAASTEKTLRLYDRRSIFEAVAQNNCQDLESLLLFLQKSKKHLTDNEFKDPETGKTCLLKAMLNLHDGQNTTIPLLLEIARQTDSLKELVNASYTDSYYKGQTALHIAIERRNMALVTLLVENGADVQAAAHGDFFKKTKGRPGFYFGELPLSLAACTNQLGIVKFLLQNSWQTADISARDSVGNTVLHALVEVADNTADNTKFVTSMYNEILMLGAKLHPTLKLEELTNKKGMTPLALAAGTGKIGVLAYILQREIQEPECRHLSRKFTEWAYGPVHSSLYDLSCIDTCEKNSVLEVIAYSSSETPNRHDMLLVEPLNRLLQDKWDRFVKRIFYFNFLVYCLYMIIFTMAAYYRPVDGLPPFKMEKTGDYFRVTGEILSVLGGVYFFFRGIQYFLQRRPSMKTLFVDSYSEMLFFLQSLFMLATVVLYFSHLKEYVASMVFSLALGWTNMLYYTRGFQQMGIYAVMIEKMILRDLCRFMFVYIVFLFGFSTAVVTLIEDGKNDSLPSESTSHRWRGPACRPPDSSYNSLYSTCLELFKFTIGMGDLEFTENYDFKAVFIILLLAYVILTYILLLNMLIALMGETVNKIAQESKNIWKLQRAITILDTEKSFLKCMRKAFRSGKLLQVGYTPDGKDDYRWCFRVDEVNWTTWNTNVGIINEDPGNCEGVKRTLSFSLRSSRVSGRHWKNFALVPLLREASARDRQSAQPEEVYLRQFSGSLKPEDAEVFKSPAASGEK

## CC(=O)N[C@@H](C(=O)N1CCN(c2cccc(C(F)(F)F)c2)CC1)c1ccccc1 [(R)-31, (R)-N-(2-Oxo-1-phenyl-2-(4-(3-(trifluoromethyl)phenyl)piperazin-1-yl)ethyl)acetamide]
[1]
  responders at 100 mg/kg: 100%
  ED50: 98.4 mg/kg
[2]
  responders at 100 mg/kg: 100%
  ED50: 34.5 mg/kg
scPTZ seizures, mice
  protection in the scPTZ seizures: 25%
  scPTZ: number of mice protected/number of mice tested: 1/4
[3]; 50 mg/kg i.p.
  effect on the threshold for the onset of any of the studied end points (ivPTZ): had no effect
[3]; 100 mg/kg i.p., p < 0.01
  threshold for generalized clonic seizure (ivPTZ): significantly raised the threshold
Na+ channel (site 2)
  % inhibition of control specific binding: 33.9 (10) %
TRPV1 (VR1) (h)
  IC50: 3.5 µM
  Kb: 0.46 µM
[4]
  remaining at 2 h: 85.2%
[4]; metabolite 404.19 (M2)
  metabolic pathway: dehydrogenation
[4]; metabolite 422.22 (M3)
  metabolic pathway: hydroxylation
[4]; metabolite 454.01 (M1)
  metabolic pathway: triple-hydroxylation

## CC(=O)N[C@@H](C(=O)N1CCN(c2cccc(SC(F)(F)F)c2)CC1)c1ccccc1 [(R)-33, (R)-N-(2-Oxo-1-phenyl-2-(4-(3-((trifluoromethyl)thio)phenyl)piperazin-1-yl)ethyl)acetamide]
[1]
  responders at 100 mg/kg: 100%
  ED50: 75.7 mg/kg
[2]
  responders at 100 mg/kg: 100%
  ED50: 23.9 mg/kg
scPTZ seizures, mice
  protection in the scPTZ seizures: ineffective
  scPTZ: number of mice protected/number of mice tested: 0/4
[3]; 50 mg/kg i.p.
  effect on the threshold for the onset of any of the studied end points (ivPTZ): ineffective
Na+ channel (site 2)
  % inhibition of control specific binding: 63.2 (10) %
TRPV1 (VR1) (h)
  IC50: 13 µM
  Kb: 1.6 µM
[4]
  remaining at 2 h: 70.3%
[4]; metabolite 436.21 (M2)
  metabolic pathway: dehydrogenation
[4]; metabolite 454.08 (M3)
  metabolic pathway: hydroxylation

## CC(=O)N[C@@H](C(=O)N1CCN(c2cccc(OC(F)(F)F)c2)CC1)c1ccccc1 [(R)-32, (R)-N-(2-Oxo-1-phenyl-2-(4-(3-(trifluoromethoxy)phenyl)piperazin-1-yl)ethyl)acetamide]
[1]
  responders at 100 mg/kg: 100%
  ED50: 73.9 mg/kg
[2]
  responders at 100 mg/kg: 100%
  ED50: 18.8 mg/kg
scPTZ seizures, mice
  protection in the scPTZ seizures: ineffective
  scPTZ: number of mice protected/number of mice tested: 0/4
[3]; 50 mg/kg i.p.
  threshold for the onset of forelimb tonus (ivPTZ): did not affect the threshold
[3]; 50 mg/kg i.p., p < 0.0001
  threshold for the first myoclonic twitch (ivPTZ): significantly increased the thresholds
[3]; 50 mg/kg i.p., p < 0.01
  threshold for generalized clonus (ivPTZ): significantly increased the thresholds
Na+ channel (site 2)
  % inhibition of control specific binding: 40.7 (10) %
TRPV1 (VR1) (h)
  IC50: 11 µM
  Kb: 1.4 µM
[4]
  remaining at 2 h: 78.5%
[4]; metabolite 420.22 (M2)
  metabolic pathway: dehydrogenation
[4]; metabolite 438.25 (M1)
  metabolic pathway: hydroxylation

Source: article PMC11378297, “Discovery and Profiling of New Multimodal Phenylglycinamide Derivatives as Potent Antiseizure and Antinociceptive Drug Candidates” (ACS Chemical Neuroscience, 2024)
